Experimental data: patent US5616615A, “Enaminone esters” (priority 1995, dated 1997)
Like-named read-outs stand apart in the source and are kept apart here.

Columns and labels:
seizures = experiment: Anticonvulsant evaluation (ASP phase I / overall); type: in vivo, mice; details: for minimal effective dose: Mus musculus, ip, Phase I, read-out: ASP Classification
In short: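 Male Carworth Farms #1 mice; maximal electroshock seizures elicited by 60-cycle AC, 50 mA, 0.2 s via corneal electrodes after a drop of 0.9% saline in the eye. Animals observed for 30 minutes.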

in vivo [1] = details: mouse, in vivo
Experimental: The first phase of the ADD Program involved performing tests on male Carworth Farms #1 mice. […] Three tests were performed:
In the second phase of the ADD program protocol, estimates of anticonvulsant activity and neurotoxicity are quantified. The median effective dose (ED50) in the MES, sc Met, and rotorod test is determined. In the case of a compound with apparent activity in only one anticonvulsant test, testing is carried out in the other up to, and in some cases beyond, doses which produce neurological deficit. Compounds which fail to produce minimal neurological deficit are tested whenever possible to doses ten times their lowest anticonvulsant ED50. […] The rotorod ED50 is determined at the time of the peak neurologic deficit.

[2] = system: Maximal electroshock seizures; experiment: MES maximal electroshock seizure test, mice ip; type: in vivo; design: TPE (time of peak effect), activity: unit not given here; details: for responders at 100 mg/kg / responders at 10 mg/kg: read-out: MES, animals protected/tested (converted)
Experimental: Three tests were performed:
1. MES--Electroshock Seizure Test
(§1) Maximal electroshock seizures are elicited with a 60-cycle alternating current of 50 mA intensity (5-7 times that necessary to elicit minimal electroshock seizures) delivered via corneal electrodes for 0.2 seconds. A drop of 0.9% saline is instilled in the eye prior to application of the electrodes in order to […].

Neurotoxicity, rats ip = details: 100 mg/kg
Experimental: The rotorod test is used to elevate neurotoxicity. The animal is placed on a 1 inch diameter knurled plastic rod rotating at 6 rpm. […] Neurologic toxicity is defined as the failure of the animal to remain on the rod for 1 minute and the results are expressed as the number of animals protected/the number of animals tested.
The toxicity evaluation for the commercial agents as previously indicated was based on the onset of ataxia.

[3] = system: Subcutaneous Pentylenetetrazol seizure; experiment: sc Met subcutaneous pentylenetetrazol (Metrazol) seizure test, mice; type: in vivo; details: Mus musculus, sc, read-out: scMet, animals protected/tested (converted)
Experimental: 2. sc Met--Subcutaneous Pentylenetetrazol (Metrazol^R) Seizure Test
The animal is observed for 30 minutes. Failure to observe even a threshold seizure (a single episode of clonic spasms of at least 5 seconds duration) is defined as protection and the results are expressed as the number of animals protected/the number of animals tested.

in vivo [4] = details: rat, po
From the text: (§2) This oral screen is designated as phase VI.

[5] = system: Maximal electroshock seizures; experiment: Phase VI oral MES test, rats; type: in vivo; details: for responders at 60 mg/kg / responders at 50 mg/kg: Rattus norvegicus, read-out: MES, animals protected/tested (converted)
From the text: as §1, §2

[6] = Mus musculus, ip, 0.5 h, 30 min
[7] = Mus musculus, ip, 0.5 h, 30 min, read-out: MES, animals protected/tested
[8] = Mus musculus, ip, 4 h, 4 h, read-out: MES, animals protected/tested

With `CC1(C)CC(=O)C=C(Nc2ccccc2)C1` [Compound 36] the minimal effective dose (seizures) was less than 100 mg/kg, the “anticonvulsant activity” value (seizures; mouse, in vivo) was “potent anticonvulsants” and the “protective index” value (in vivo [1]) was “modest”. For the same compound, the TD50 (in vivo [1]; ip) was 233 mg/kg, the “TPE (time of peak effect), toxicity” value (in vivo [1]; ip) was 0.5 and the selectivity ratio (in vivo [1]; ip) was 2.13. For the same compound, the responders at 100 mg/kg [2, 6] was 66.7%, the responders at 300 mg/kg [2, 7] was 100% and the responders at 100 mg/kg ([2]; Mus musculus, ip, 4 h, 4 h) was 0%. For the same compound, the responders at 300 mg/kg [2, 8] was 0%, the ED50 ([2]; Mus musculus, Phase II, ip, time of peak effect) was 109 mg/kg and the “TPE (time of peak effect), activity” value ([2]; Phase II, ip) was 0.5. The animals displaying neurotoxicity/tested (Neurotoxicity, rats ip; 0.25 h (Table X-A)) was 5/8, the animals displaying neurotoxicity/tested (Neurotoxicity, rats ip; 0.50 h (Table X-A)) was 7/8 and the animals displaying neurotoxicity/tested (Neurotoxicity, rats ip; 1.00 h (Table X-A)) was 6/8. The animals displaying neurotoxicity/tested (Neurotoxicity, rats ip; 2.00 h (Table X-A)) was 6/8, the animals displaying neurotoxicity/tested (Neurotoxicity, rats ip; 4.00 h (Table X-A)) was 3/8 and the animals displaying neurotoxicity/tested (Neurotoxicity, rats ip; 6.00 h (Table X-A)) was 3/8. The animals displaying neurotoxicity/tested (Neurotoxicity, rats ip; 24.00 h (Table X-A)) was 0/8, the responders at 100 mg/kg ([3]; 0.5 h, 30 min) was 0% and the responders at 300 mg/kg ([3]; 0.5 h, 30 min) was 0%. For the same compound, the responders at 100 mg/kg ([3]; 4 h, 4 h) was 0%, the responders at 300 mg/kg ([3]; 4 h, 4 h) was 0% and the TD50 (in vivo [4]) was greater than 250 mg/kg. The selectivity ratio (in vivo [4]) was 8.3, the “Tox, animals toxic/tested” value (in vivo [4]; 60 mg/kg) was 0/4 and the ED50 ([5]; Phase VI, oral, rat) was 30.1 mg/kg. For the same compound, the “anticonvulsant activity over time” value ([5]; Phase VI, rats) was “anticonvulsant activity is lost after 1 hour”, the responders at 60 mg/kg ([5]; 0.5 h, oral, 0.50 h) was 75% and the responders at 60 mg/kg ([5]; oral, 0.25 h) was 75%. It also gave a responders at 60 mg/kg ([5]; oral, 1.00 h) of 0%, a responders at 60 mg/kg ([5]; oral, 2.00 h) of 0% and a responders at 60 mg/kg ([5]; oral, 4.00 h) of 0%.

In the case of `CCOC(=O)C1C(=O)C=C(Nc2ccc(CC)cc2)CC1C` (stereo not shown) [Compound 126], the minimal effective dose (seizures) is reported as greater than 100 mg/kg, the “Tox (rotorod), animals toxic/tested” value (in vivo [1]; 100 mg/kg) is reported as 0/2 and the responders at 100 mg/kg ([2]; Mus musculus, ip, 0.25 h, Phase II, 0.25 h) is reported as 100%. It also gave a responders at 300 mg/kg [2, 7] of 100%, a responders at 100 mg/kg ([2]; Mus musculus, ip, 1 h, Phase II, 1.00 h) of 0% and a responders at 300 mg/kg [2, 8] of 0%. For the same compound, the responders at 300 mg/kg ([3]; 0.5 h, 30 min) was 0%, the responders at 300 mg/kg ([3]; 4 h, 4 h) was 0% and the “Tox, animals toxic/tested” value (in vivo [4]; 50 mg/kg) was 0/4. For the same compound, the responders at 50 mg/kg ([5]; 0.5 h, oral, 0.50 h) was 75%, the responders at 50 mg/kg ([5]; oral, 0.25 h) was 50% and the responders at 50 mg/kg ([5]; oral, 1.00 h) was 75%. It also gave a responders at 50 mg/kg ([5]; oral, 2.00 h) of 75% and a responders at 50 mg/kg ([5]; oral, 4.00 h) of 50%.

In the case of `CCOC(=O)C1C(=O)C=C(Nc2ccc([N+](=O)[O-])cc2)CC1C` (stereo not shown) [Compound 127], the minimal effective dose (seizures) is reported as less than 100 mg/kg, the “Tox (rotorod), animals toxic/tested” value (in vivo [1]; 3 mg/kg) is reported as 0/4 and the “Tox (rotorod), animals toxic/tested” value (in vivo [1]; 10 mg/kg) is reported as 0/4. The responders at 100 mg/kg [2, 6] was 100%, the responders at 300 mg/kg [2, 7] was 100% and the responders at 3 mg/kg ([2]; Mus musculus, ip, 0.5 h, Phase II, 3 mg/kg, 0.50 h, read-out: MES, animals protected/tested) was 0%. For the same compound, the responders at 10 mg/kg ([2]; Mus musculus, ip, 0.5 h, Phase II, 0.50 h) was 0%, the responders at 100 mg/kg ([2]; Mus musculus, ip, 4 h, 4 h) was 0% and the responders at 300 mg/kg [2, 8] was 0%. For the same compound, the responders at 100 mg/kg ([3]; 0.5 h, 30 min) was 0%, the responders at 300 mg/kg ([3]; 0.5 h, 30 min, second trial) was 50% and the responders at 300 mg/kg ([3]; 0.5 h, 30 min) was 100%. The responders at 100 mg/kg ([3]; 4 h, 4 h) was 0%, the responders at 300 mg/kg ([3]; 4 h, 4 h) was 0% and the “Tox, animals toxic/tested” value (in vivo [4]; 50 mg/kg) was 0/4. It also gave a responders at 50 mg/kg ([5]; 0.5 h, oral, 0.50 h) of 50%, a responders at 50 mg/kg ([5]; oral, 0.25 h) of 25% and a responders at 50 mg/kg ([5]; oral, 1.00 h) of 100%. It also gave a responders at 50 mg/kg ([5]; oral, 2.00 h) of 50% and a responders at 50 mg/kg ([5]; oral, 4.00 h) of 25%.

With `CCOC(=O)C1C(=O)C=C(Nc2ccc(C(F)(F)F)cc2)CC1C` (stereo not shown) [Compound 131] the minimal effective dose (seizures) was less than 100 mg/kg, the “Tox, animals toxic/tested” value (in vivo [1]; ip, 100 mg/kg) was 0/8 and the responders at 10 mg/kg ([2]; Mus musculus, ip, 0.25 h, mice ip, 0.25 h) was 100%. For the same compound, the responders at 100 mg/kg [2, 6] was 100%, the responders at 300 mg/kg [2, 7] was 100% and the responders at 10 mg/kg ([2]; Mus musculus, ip, 0.5 h, mice ip, 0.50 h) was 75%. For the same compound, the responders at 10 mg/kg ([2]; Mus musculus, ip, 1 h, mice ip, 1.00 h) was 100%, the responders at 10 mg/kg ([2]; Mus musculus, ip, 2 h, mice ip, 2.00 h) was 50% and the responders at 100 mg/kg ([2]; Mus musculus, ip, 4 h, 4 h) was 0%. The responders at 300 mg/kg [2, 8] was 100%, the responders at 10 mg/kg ([2]; Mus musculus, ip, 4 h, mice ip, 4.00 h) was 50% and the “anti-MES protecting ability” value ([2]; Phase I) was “showed anti-MES protecting ability”. For the same compound, the responders at 100 mg/kg ([3]; 0.5 h, 30 min) was 0%, the responders at 300 mg/kg ([3]; 0.5 h, 30 min) was 0% and the responders at 100 mg/kg ([3]; 4 h, 4 h) was 0%. For the same compound, the responders at 300 mg/kg ([3]; 4 h, 4 h) was 0%, the “Tox, animals toxic/tested” value (in vivo [4]; 50 mg/kg) was 0/4 and the responders at 50 mg/kg ([5]; 0.5 h, oral, 0.50 h) was 100%. The responders at 50 mg/kg ([5]; oral, 0.25 h) was 100%, the responders at 50 mg/kg ([5]; oral, 1.00 h) was 100% and the responders at 50 mg/kg ([5]; oral, 2.00 h) was 100%.
